Source: the SangsterLogP compilation

Experiment: method code SF-AS, from DOI: 10.1002/recl.19891080306
`c1ccc2c(c1)OCCOCCOCCOCCOCCOCCOCCOc1ccccc1OCCOCCOCCOCCOCCOCCOCCO2` gave a logP of 0.52.
With `c1ccc2c(c1)OCCOCCOCCOCCOCCOCCO2` the logP was 0.57.
`COCCOCCOc1ccccc1OCCOCCOC` showed a logP of 0.76.
`c1ccc2c(c1)OCCOCCOCCOCCOCCOCCOCCOCCO2` gave a logP of 0.23.
With `COCCOCCOc1cccc(OCCOCCOC)c1` the logP was 0.86.
In the case of `c1ccc2c(c1)OCCOCCOCCOCCOc1ccccc1OCCOCCOCCOCCO2`, the logP is reported as 1.8.
With `c1ccc2c(c1)OCCOCCOCCOCCOCCOCCOCCO2` the logP was 0.45.
With `c1ccc2c(c1)OCCOCCOCCOCCOCCOCCOc1ccccc1OCCOCCOCCO2` the logP was 1.45.
Work on `c1ccc2c(c1)OCCOCCOCCOCCOCCO2` yielded a logP of 0.58.
`COCCOCCOCCOc1ccccc1OCCOCCOCCOC` gave a logP of 0.38.
For `c1ccc2c(c1)OCCOCCOc1ccccc1OCCOCCO2`, the logP was 2.2.
Compound `COCCOCCOc1ccc(OCCOCCOC)cc1` has a logP of 0.76.
In the case of `c1ccc2c(c1)OCCOCCOCCOCCOCCOCCOc1ccccc1OCCO2`, the logP is reported as 1.63.
In the case of `c1ccc2c(c1)OCCOCCOCCOCCO2`, the logP is reported as 0.91.
`c1ccc2c(c1)OCCOCCOCCOc1ccccc1OCCOCCOCCO2` showed a logP of 2.11.
`c1ccc2c(c1)OCCOCCOCCOCCOCCOCCOCCOCCOCCO2` showed a logP of 0.03.
With `c1ccc2c(c1)OCCOCCOCCOCCOCCOCCOCCOCCOCCOCCO2` the logP was -0.09.
Work on `c1ccc2c(c1)OCCOCCOCCOCCOCCOCCOCCOc1ccccc1OCCO2` yielded a logP of 1.82.
